Series [1] has as its target T1, Tumor necrosis factor receptor superfamily member 16 (Homo sapiens) (UniProt P08138).
T1 sequence (whole entry): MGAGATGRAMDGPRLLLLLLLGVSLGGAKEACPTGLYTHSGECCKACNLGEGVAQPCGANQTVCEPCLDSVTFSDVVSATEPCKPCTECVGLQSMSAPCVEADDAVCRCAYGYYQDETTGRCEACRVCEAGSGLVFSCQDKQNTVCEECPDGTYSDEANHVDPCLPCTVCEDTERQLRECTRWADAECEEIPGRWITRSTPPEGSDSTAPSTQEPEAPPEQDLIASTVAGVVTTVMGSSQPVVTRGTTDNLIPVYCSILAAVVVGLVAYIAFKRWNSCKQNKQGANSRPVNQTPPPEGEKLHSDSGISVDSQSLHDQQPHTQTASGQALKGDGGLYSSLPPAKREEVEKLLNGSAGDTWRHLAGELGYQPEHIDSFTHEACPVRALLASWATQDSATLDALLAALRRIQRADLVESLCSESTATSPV
Put plainly: Inhibition of mouse NGF binding to p75 (unknown origin) by SPR method relative to control. In general terms: In SPR one partner is held on a chip, and binding of the other changes the refractive index at the surface.

Series [2] addresses T2, High affinity nerve growth factor receptor (Homo sapiens, UniProt P04629). Nature of the series: Inhibition of His-tagged recombinant human TrkA using Alexa-Fluor tracer-236 incubated for 60 mins by TR-FRET based Lantha-screen Eu kinase binding assay. (In general: Time-resolved FRET reads energy transfer from a long-lived donor to a nearby acceptor.)
Target sequence in this assay (P04629 whole entry): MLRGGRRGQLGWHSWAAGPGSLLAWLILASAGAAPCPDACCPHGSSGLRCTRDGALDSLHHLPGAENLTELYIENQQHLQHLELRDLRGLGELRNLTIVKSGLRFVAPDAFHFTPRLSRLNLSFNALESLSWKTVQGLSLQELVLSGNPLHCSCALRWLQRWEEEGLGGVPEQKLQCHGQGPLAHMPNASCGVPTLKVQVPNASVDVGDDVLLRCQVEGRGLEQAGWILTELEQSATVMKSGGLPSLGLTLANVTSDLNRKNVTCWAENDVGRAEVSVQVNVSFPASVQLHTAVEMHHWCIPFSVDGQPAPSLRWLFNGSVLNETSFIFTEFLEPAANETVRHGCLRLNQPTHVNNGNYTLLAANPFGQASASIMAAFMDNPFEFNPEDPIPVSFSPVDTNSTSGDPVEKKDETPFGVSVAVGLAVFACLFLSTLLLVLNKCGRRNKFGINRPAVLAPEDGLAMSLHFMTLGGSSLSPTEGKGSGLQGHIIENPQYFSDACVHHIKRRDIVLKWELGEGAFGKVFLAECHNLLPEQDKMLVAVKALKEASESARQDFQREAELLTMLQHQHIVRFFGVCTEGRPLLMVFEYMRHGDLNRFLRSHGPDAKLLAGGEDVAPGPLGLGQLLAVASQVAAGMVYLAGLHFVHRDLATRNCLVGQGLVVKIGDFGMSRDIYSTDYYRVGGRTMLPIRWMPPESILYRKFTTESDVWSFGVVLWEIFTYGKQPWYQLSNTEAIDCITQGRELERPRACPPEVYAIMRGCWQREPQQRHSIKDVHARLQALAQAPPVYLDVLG
Series [3] addresses T3, BDNF/NT-3 growth factors receptor (Homo sapiens, UniProt Q16620). Put plainly: Inhibition of His6 tagged human recombinant TrkB (455 to end amino acids) expressed in Sf21 cells at 10 uM.
Target sequence in this assay (Q16620 32-822 limits assumed): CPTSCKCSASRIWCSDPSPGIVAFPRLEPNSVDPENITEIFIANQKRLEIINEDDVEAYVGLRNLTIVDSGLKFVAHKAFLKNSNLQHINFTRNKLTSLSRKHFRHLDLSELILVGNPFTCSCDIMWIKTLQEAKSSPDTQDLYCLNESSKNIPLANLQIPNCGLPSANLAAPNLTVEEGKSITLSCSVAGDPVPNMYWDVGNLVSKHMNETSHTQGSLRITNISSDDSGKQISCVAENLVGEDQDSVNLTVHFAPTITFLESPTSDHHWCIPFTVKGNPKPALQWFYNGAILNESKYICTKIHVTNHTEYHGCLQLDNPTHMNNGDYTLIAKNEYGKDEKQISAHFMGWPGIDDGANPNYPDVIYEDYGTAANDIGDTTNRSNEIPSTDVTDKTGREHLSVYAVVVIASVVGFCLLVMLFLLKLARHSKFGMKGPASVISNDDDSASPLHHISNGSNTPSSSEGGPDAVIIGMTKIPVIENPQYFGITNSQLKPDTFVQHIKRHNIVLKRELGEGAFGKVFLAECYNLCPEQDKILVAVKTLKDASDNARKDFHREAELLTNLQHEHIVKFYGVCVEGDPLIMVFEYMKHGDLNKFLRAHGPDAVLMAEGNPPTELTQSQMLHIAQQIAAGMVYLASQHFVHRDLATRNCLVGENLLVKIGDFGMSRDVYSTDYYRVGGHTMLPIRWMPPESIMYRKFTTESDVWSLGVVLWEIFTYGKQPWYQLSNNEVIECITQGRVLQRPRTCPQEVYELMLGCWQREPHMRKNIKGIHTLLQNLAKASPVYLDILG
The subject of series [4] is P-gp. Nature of the series: Binding affinity to P-gp (unknown origin) assessed as efflux ratio by cell based assay. It is filed as ADME. As to conditions: human, not told.
Series [5] addresses T2, High affinity nerve growth factor receptor. Put plainly: Inhibition of mouse NGF binding to TrkA (unknown origin) by SPR method relative to control.
Target sequence in this assay (P04629 33-796 limits assumed): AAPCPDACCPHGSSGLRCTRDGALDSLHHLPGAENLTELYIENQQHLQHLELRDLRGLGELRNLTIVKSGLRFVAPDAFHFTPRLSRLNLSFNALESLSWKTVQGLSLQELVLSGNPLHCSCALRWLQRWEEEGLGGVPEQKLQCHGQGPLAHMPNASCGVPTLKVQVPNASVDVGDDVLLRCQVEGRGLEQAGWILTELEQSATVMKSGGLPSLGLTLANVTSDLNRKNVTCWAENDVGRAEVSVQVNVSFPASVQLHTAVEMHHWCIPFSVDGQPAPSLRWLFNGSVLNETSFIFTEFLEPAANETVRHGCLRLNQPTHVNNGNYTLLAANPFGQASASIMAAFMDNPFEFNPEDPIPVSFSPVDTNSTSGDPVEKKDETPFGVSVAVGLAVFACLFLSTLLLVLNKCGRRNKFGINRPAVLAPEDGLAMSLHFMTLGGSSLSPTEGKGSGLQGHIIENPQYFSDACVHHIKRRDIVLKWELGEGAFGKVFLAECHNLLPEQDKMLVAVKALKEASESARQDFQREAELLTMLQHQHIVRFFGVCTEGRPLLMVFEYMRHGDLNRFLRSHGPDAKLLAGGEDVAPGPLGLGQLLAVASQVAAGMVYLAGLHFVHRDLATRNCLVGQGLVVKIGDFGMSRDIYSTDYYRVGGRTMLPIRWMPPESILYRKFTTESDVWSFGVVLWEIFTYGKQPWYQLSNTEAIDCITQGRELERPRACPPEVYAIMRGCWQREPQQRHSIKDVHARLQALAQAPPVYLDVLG
Series [6] concerns the target T4, Tumor necrosis factor receptor superfamily member 16 (Homo sapiens, UniProt P08138).
T4 sequence (P08138 whole entry): T1 sequence (whole entry)
Put plainly: Inhibition of mouse NGF binding to p75 (unknown origin) by SPR method.

Series [7] has as its target Beta-nerve growth factor (Mus musculus, UniProt P01139). Put plainly: Inhibition of mouse NGF binding to TrkA (unknown origin) by SPR method. Also on record: species or system Homo sapiens.
For series [8], the target named is T3, BDNF/NT-3 growth factors receptor. Put plainly: Inhibition of N-terminal GST tagged human TrkB cytoplasmic domain (456 to 822 amino acids) pre-incubated for 15 mins before peptide substrate addition for 180 mins by fluorescence based assay.
Target sequence in this assay (Q16620 whole entry): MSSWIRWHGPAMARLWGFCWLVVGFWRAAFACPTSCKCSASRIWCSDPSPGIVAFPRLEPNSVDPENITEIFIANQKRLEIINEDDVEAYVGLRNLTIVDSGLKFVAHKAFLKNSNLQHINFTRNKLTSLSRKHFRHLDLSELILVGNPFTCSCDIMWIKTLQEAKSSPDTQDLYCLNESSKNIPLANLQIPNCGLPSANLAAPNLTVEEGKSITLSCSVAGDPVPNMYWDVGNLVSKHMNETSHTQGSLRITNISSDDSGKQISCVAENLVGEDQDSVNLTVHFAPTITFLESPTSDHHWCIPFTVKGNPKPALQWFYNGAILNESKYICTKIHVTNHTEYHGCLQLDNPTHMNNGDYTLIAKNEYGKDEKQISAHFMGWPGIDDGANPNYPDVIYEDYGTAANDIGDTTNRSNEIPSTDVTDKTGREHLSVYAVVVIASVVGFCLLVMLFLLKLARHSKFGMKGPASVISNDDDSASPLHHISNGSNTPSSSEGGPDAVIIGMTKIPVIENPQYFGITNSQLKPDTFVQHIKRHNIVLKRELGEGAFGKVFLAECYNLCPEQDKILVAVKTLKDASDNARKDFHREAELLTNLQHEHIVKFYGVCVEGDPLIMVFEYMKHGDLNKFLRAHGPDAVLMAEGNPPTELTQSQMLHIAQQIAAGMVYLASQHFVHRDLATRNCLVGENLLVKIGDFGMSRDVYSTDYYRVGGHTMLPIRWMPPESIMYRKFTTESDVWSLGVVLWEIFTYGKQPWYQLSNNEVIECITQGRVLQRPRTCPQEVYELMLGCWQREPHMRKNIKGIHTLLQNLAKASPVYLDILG
The target in series [9] is T2, High affinity nerve growth factor receptor. Nature of the series: Inhibition of N-terminal GST tagged human TrkA cytoplasmic domain (436 to 790 amino acids) pre-incubated for 15 mins before peptide substrate addition for 180 mins by fluorescence based assay.
Target sequence in this assay (P04629 whole entry): as the sequence (P04629 whole entry) above
The target of series [10] is NT-3 growth factor receptor (Homo sapiens, UniProt Q16288). Nature of the series: Inhibition of NT3-stimulated TrkC phosphorylation in human U2OS cells by beta-galactosidase reporter gene based PathHunter profiling assay. It counts as cell-based. A general note: Reporter assays use an easily measured gene product as a stand-in for the process of interest.
For series [11], the target named is T3, BDNF/NT-3 growth factors receptor. Nature of the series: Inhibition of BDNF-stimulated TrkB phosphorylation in human U2OS cells by beta-galactosidase reporter gene based PathHunter profiling assay. It counts as cell-based.
Target sequence in this assay (Q16620 whole entry): as the sequence (Q16620 whole entry) above
Series [12] addresses T2, High affinity nerve growth factor receptor. Put plainly: Inhibition of NGF-stimulated TrkA phosphorylation in human U2OS cells by beta-galactosidase reporter gene based PathHunter profiling assay. It counts as cell-based.
Target sequence in this assay (P04629 whole entry): as the sequence (P04629 whole entry) above
Series [13] shares this target. Nature of the series: Inhibition of TrkA (unknown origin) by cell based assay.
Target sequence in this assay (P04629 whole entry): as above
Series [14] has as its system Rattus norvegicus. Put plainly: Inhibition of thermal sensitization-induced tactile allodynia in it dosed rat model of L5/L6 nerve ligation injury. It counts as functional.
Series [15] deals with Rattus norvegicus. Nature of the series: Inhibition of mechanical allodynia in it dosed rat model of L5/L6 nerve ligation injury. It is filed as functional.
Series [16] addresses T5, High affinity nerve growth factor receptor (Rattus norvegicus, UniProt P35739). Put plainly: Inhibition of NGF-induced TrkA auto-phosphorylation in rat PC12 cells incubated for 15 mins by chemiluminescence based method. It counts as cell-based, PC-12.
Series [17] relates to Rattus norvegicus. Put plainly: Inhibition of mechanical allodynia ip dosed rat model of L5/L6 nerve ligation injury. It is filed as functional.
Series [18] deals with T5, High affinity nerve growth factor receptor. Put plainly: Inhibition of binding of [125I]-NGF to TrkA in rat PC12 cells incubated for 2 hrs by gamma counting method. It counts as cell-based, PC-12.

The term IC50 denotes the concentration that gives 50% inhibition. For orientation: inhibition means how much of the control response was suppressed. In general, efflux ratio refers to a quotient of directional permeabilities that is used to spot active efflux. The EC50 is the concentration that produces a half-maximal response. Read a high EC50 as a need for much substance.

Each structure is given as a SMILES string.

Beta-nerve growth factor, sequence (P01139 whole entry, looked up, the tested form may be a part): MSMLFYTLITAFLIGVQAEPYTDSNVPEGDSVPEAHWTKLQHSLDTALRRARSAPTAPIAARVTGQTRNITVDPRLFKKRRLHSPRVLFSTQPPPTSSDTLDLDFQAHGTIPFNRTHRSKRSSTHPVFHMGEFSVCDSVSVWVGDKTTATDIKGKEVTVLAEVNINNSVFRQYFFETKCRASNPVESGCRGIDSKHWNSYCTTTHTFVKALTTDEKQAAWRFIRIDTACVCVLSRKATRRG
T5 sequence (P35739 whole entry): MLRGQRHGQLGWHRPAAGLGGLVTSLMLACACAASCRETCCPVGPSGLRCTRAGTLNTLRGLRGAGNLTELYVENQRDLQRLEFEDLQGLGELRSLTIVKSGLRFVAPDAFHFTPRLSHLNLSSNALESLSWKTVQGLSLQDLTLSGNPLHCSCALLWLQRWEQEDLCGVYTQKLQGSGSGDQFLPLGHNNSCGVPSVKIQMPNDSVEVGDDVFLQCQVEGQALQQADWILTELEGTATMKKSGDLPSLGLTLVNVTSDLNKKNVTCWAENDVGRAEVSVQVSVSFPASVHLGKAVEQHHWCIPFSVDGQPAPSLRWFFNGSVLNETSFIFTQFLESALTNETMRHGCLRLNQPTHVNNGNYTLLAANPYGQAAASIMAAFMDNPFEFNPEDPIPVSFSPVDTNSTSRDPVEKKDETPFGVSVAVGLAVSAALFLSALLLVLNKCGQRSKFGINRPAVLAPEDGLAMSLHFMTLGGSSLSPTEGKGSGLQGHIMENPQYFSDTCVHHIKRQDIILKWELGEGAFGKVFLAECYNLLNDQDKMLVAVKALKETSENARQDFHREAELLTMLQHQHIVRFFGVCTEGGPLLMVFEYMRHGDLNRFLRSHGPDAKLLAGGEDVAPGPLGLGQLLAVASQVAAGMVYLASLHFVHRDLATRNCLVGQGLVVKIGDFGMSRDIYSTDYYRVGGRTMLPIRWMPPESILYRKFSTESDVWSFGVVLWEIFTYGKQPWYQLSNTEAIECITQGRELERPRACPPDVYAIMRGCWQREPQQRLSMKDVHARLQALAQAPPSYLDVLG

The compound `Cn1c2c(N)cc(N)cc2c(=O)n2nc(C(=O)O)c([N+](=O)[O-])c12` had an Imax in series [1] of 70%.

For `Cc1c(-c2cnn(C)c2)nn(-c2ccccc2)c1NC(=O)Nc1cc(C(F)(F)F)nn1-c1ccccc1`, the 50% inhibitory concentration (IC50) in [2] is under 0.1 µM.

On to `COCCCc1cc(Cl)c(Cl)cc1NC(=O)Nc1c(C)c(-c2cnn(C)c2)nn1-c1ccccc1`, for which, in series [2], the IC50 is under 0.1 µM.

Consider `COCc1ccc2cccc(NC(=O)Nc3c(C)c(-c4cnn(C)c4)nn3-c3ccccc3)c2c1`, for which the IC50 in series [2] is under 0.1 µM. In [3], the inhibition worked out at 91%.

As for `COc1ccc(C(=O)c2cn(C(C)C)c3ncnc(N)c23)cc1NC(=O)Nc1ccc(Cl)cc1Cl` [CE-245677], the efflux ratio in [4] amounted to 1.

Consider `Cn1c2ccc(NC(=O)c3ccccc3)cc2c(=O)n2nc(C(=O)O)cc12`, for which the results for the Imax in series [5] and in series [1] were 100% and 65%, respectively. Further, the results for the IC50 in series [6] and in series [7] were 110 µM and 47 µM, respectively.

With `COc1ccc(COc2ccc(Cn3c(N)nc4cc(-c5cnn(C)c5)ccc43)cc2OC)cc1`, the half-inhibitory concentration (IC50) in series [8] and in [9] was 0.0003 µM in each case.

As to `O=C(O)c1ccc(Nc2cc(N3CCN(C4CCCCC4)CC3)c3noc4c3c2C(=O)c2ccccc2-4)cc1`, the values for the 50% inhibitory concentration (IC50) in series [10], in series [11] and in series [12] were over 10 µM, over 10 µM and 0.05 µM, respectively.

In the case of `Cc1c(-c2cnn(C)c2)nn(-c2ccccc2)c1NC(=O)Nc1sc(C(F)(F)F)nc1-c1ccccc1`, in series [2], the IC50 is under 0.1 µM. The inhibition in series [3] came out at 97%.

As to `Cc1cc2nc3c(=O)[nH]c(=O)nc-3n(C)c2cc1C=O`, the figures for the Imax in [5] and in [1] were 100% and 37%, respectively. Besides, the 50% inhibitory concentration (IC50) in series [6] stood at 244 µM; in series [7], 33 µM.

`CC(=O)NCc1ncc(NC(=O)c2ccc(C(F)(F)F)c(-c3ccn(C)n3)c2)c(-c2ccccc2)n1` came in with a half-maximal inhibitory concentration (IC50) in series [13] of 0.004 µM.

In the case of `O=C1c2cccc3cc([N+](=O)[O-])cc(c23)C(=O)N1NCCO`, the ED50 was 50 µg in [14], 34.6 µg in series [15] and 38 mg/kg in series [17]. The Imax worked out at 44% in [5] and 6.2% in series [1]. The compound also yielded a concentration for a half-maximal effect (EC50) in series [16] of 22 µM. For the same compound, the values for the IC50 in series [6], in series [7] and in [18] were over 300 µM, 149 µM and 5.88 µM, respectively.

The values are drawn from ChEMBL document CHEMBL3860101, “Targeting the Nerve Growth Factor (NGF) Pathway in Drug Discovery. Potential Applications to New Therapies for Chronic Pain” (J Med Chem, 2017).
